Read-outs that look alike come from different tables or passages of the source. Starred links: 1 amine or outer side, 2 acyl side, 3 side chain; linkers in the order of their positions; H or OH if unused. Non-standard residues stand in square brackets, D forms with d. Residues, ends and D or L forms follow the SMILES beside them. *: point of attachment. DOTAGA = O=C(O)CN1CCN(CC(=O)O)CCN(C(CCC(=O)*)C(=O)O)CCN(CC(=O)O)CC1; Benzoyl(4-SiFtBu2) = CC(C)(C)[Si](F)(c1ccc(C(=O)*)cc1)C(C)(C)C; DOTA = O=C(O)CN1CCN(CC(=O)O)CCN(CC(=O)*)CCN(CC(=O)O)CC1; X4 = CC(C)(C)[Si](O)(c1ccc(C(=O)*)cc1)C(C)(C)C; d(γGlu) = O=C(O)[C@@H](CCC(=O)[*:2])N[*:1]; 1Nal = N[C@@H](Cc1cccc2ccccc12)C(=O)O; Hyp = O=C(O)[C@@H]1C[C@@H](O)CN1; NMeNle = CCCC[C@H](NC)C(=O)O; PEG4 = NCCOCCOCCOCCOCCC(=O)O; Nle = CCCC[C@H](N)C(=O)O; dDap = NC[C@@H](N)C(=O)O
Experiments:
CCK-2R = molecular target: T1, CCK-2R (Rattus norvegicus, UniProt P30553); experiment: Determination of IC50: CCK-2R affinity on AR4-2J cells, competition with [^177Lu]Lu-DOTA-PP-F11N; type: binding; details: for IC50: AR4-2J cells
T1 construct: The CCK-2R expressing rat pancreatic tumor cells AR4-2J; host or cells: AR4-2J rat pancreatic tumor cells
T1 sequence (P30553 1-452): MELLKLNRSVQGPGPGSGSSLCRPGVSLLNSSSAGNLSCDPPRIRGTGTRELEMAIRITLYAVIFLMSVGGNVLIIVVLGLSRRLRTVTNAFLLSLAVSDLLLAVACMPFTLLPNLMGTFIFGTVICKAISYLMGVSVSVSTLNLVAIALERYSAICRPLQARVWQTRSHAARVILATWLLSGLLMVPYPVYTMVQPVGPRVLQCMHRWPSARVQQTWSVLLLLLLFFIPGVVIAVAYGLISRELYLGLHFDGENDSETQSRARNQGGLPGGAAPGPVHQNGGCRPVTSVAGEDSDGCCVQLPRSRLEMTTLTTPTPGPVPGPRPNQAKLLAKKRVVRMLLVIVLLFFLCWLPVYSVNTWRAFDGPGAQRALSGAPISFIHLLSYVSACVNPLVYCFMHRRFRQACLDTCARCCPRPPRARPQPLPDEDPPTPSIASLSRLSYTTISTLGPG
Method in brief: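 Competitive displacement of 0.3 pmol/well [177Lu]Lu-DOTA-PP-F11N by compounds (10^-10 to 10^-4 M) on AR4-2J cells in BSA-supplemented medium, 3 h at 37 °C. Free label was collected from medium plus PBS rinse, and cell-bound label was recovered with 1 M NaOH, both measured by γ-counter. Each IC50 was determined twice, in triplicate.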

[1] = n-Octanol-PBS distribution coefficient (logD7.4); type: physicochemical; details: pH = 7.4, ^177Lu-labeled
Protocol: Approximately 1 MBq of the labeled tracer was dissolved in 1 mL of a 1/1 mixture (v/v) of phosphate buffered saline (PBS, pH = 7.4) and n-octanol in an Eppendorf tube (1.5 mL). After vigorous mixing of the suspension for 3 min at rt, the vial was centrifuged at 9,000 rpm for 5 min (Biofuge 15, Heraeus Sepatech, Osterode, Germany) and 200 µL aliquots of both layers were measured in a γ-counter. The experiment was repeated at least five times.

[2] = read-out: IC50 [nM] (n = 3), ^natLu-labeled, ^natLu-labeled

Compound | IC50 (CCK-2R; references ^natLu-labeled, other peptides without chelator, read-out: IC50 [nM] (n = 3)) | IC50 value, fold lower than [^natLu]Lu-DOTA-PP-F11N (CCK-2R; ^natLu-labeled) | logD7.4 (n ≥ 5), ^177Lu-labeled [1] | IC50 (CCK-2R; [2])
CCCC[C@H](NC(=O)[C@H](Cc1c[nH]c2ccccc12)NC(=O)CNC(=O)[C@H](Cc1ccc(O)cc1)NC(=O)[C@H](C)NC(=O)CC[C@@H](NC(=O)CC[C@@H](NC(=O)CC[C@@H](NC(=O)CC[C@@H](NC(=O)CC[C@@H](NC(=O)CC[C@@H](NC(=O)CN1CCN(CC(=O)O)CCN(CC(=O)O)CCN(CC(=O)O)CC1)C(=O)O)C(=O)O)C(=O)O)C(=O)O)C(=O)O)C(=O)O)C(=O)N[C@@H](CC(=O)O)C(=O)N[C@@H](Cc1ccccc1)C(N)=O [DOTA-PP-γ-F11N, DOTA-γ-glu^1-γ-glu^2-γ-glu^3-γ-glu^4-γ-glu^5-γ-glu^6-Ala^7-Tyr^8-Gly^9-Trp^10-Nle^11-Asp^12-Phe^13-NH2, reference compound] ({DOTA-d(γGlu)-d(γGlu)-d(γGlu)-d(γGlu)-d(γGlu)-d(γGlu)}-AYGW[Nle]DF-NH2) | 7.5 ± 0.5 nM | 1.7 fold | −4.38 ± 0.05 | 
CCCC[C@@H](C(=O)N[C@@H](CC(=O)O)C(=O)N[C@@H](Cc1cccc2ccccc12)C(N)=O)N(C)C(=O)[C@H](Cc1c[nH]c2ccccc12)NC(=O)CCOCCOCCOCCOCCNC(=O)CC[C@@H](NC(=O)[C@@H]1C[C@@H](O)CN1C(=O)[C@@H]1C[C@@H](O)CN1C(=O)[C@@H]1C[C@@H](O)CN1C(=O)[C@@H]1C[C@@H](O)CN1C(=O)[C@@H]1C[C@@H](O)CN1C(=O)[C@@H]1C[C@@H](O)CN1C(=O)CC[C@@H](NC(=O)[C@@H](CNC(=O)c1ccc([Si](O)(C(C)(C)C)C(C)(C)C)cc1)NC(=O)CN1CCN(CC(=O)O)CCN(CC(=O)O)CCN(CC(=O)O)CC1)C(=O)O)C(=O)O [DOTA-rhCCK-84.2, DOTA-dap(SiOH)-γ-glu-(Hyp)6-γ-glu-(PEG)3-Trp-(N-Me)Nle-Asp-1-Nal-NH2] ({DOTA}-[dDap](X4)[d(γGlu)][Hyp][Hyp][Hyp][Hyp][Hyp][Hyp][d(γGlu)][PEG4]W[NMeNle]D[1Nal]-NH2) |  |  | −2.21 ± 0.08 | 13 ± 0.8 nM
CCCC[C@H](NC(=O)[C@H](Cc1c[nH]c2ccccc12)NC(=O)CNC(=O)[C@H](Cc1ccc(O)cc1)NC(=O)[C@H](C)NC(=O)[C@@H](CNC(=O)c1ccc([Si](F)(C(C)(C)C)C(C)(C)C)cc1)NC(=O)[C@@H](CCC(=O)O)NC(=O)[C@@H](CCC(=O)O)NC(=O)[C@@H](CCC(=O)O)NC(=O)[C@@H](CCC(=O)O)NC(=O)[C@@H](CCC(=O)O)NC(=O)[C@@H](CCC(=O)O)NC(=O)CCC(C(=O)O)N1CCN(CC(=O)O)CCN(CC(=O)O)CCN(CC(=O)O)CC1)C(=O)N[C@@H](CC(=O)O)C(=O)N[C@@H](Cc1ccccc1)C(N)=O (some centres unmarked) [DOTAGA-MG-SiFA-5, DOTAGA-glu-[dap(SiFA)^6]F11N] ({DOTAGA}-[dE][dE][dE][dE][dE][dE][dDap](Benzoyl(4-SiFtBu2))AYGW[Nle]DF-NH2) |  |  | −1.71 ± 0.10 | 629 ± 48 nM
CCCC[C@H](NC(=O)[C@H](Cc1c[nH]c2ccccc12)NC(=O)CNC(=O)[C@H](Cc1ccc(O)cc1)NC(=O)[C@H](C)NC(=O)[C@@H](CCC(=O)O)NC(=O)[C@@H](CNC(=O)c1ccc([Si](F)(C(C)(C)C)C(C)(C)C)cc1)NC(=O)[C@@H](CCC(=O)O)NC(=O)[C@@H](CCC(=O)O)NC(=O)[C@@H](CCC(=O)O)NC(=O)[C@@H](CCC(=O)O)NC(=O)[C@@H](CCC(=O)O)NC(=O)CCC(C(=O)O)N1CCN(CC(=O)O)CCN(CC(=O)O)CCN(CC(=O)O)CC1)C(=O)N[C@@H](CC(=O)O)C(=O)N[C@@H](Cc1ccccc1)C(N)=O (some centres unmarked) [DOTAGA-MG-SiFA-6, DOTAGA-glu-[dap(SiFA)^5]F11N] ({DOTAGA}-[dE][dE][dE][dE][dE][dDap](Benzoyl(4-SiFtBu2))[dE]AYGW[Nle]DF-NH2) |  |  | −1.95 ± 0.09 | 155 ± 18 nM
CCCC[C@H](NC(=O)[C@H](Cc1c[nH]c2ccccc12)NC(=O)CNC(=O)[C@H](Cc1ccc(O)cc1)NC(=O)[C@H](C)NC(=O)[C@@H](CCC(=O)O)NC(=O)[C@@H](CCC(=O)O)NC(=O)[C@@H](CNC(=O)c1ccc([Si](F)(C(C)(C)C)C(C)(C)C)cc1)NC(=O)[C@@H](CCC(=O)O)NC(=O)[C@@H](CCC(=O)O)NC(=O)[C@@H](CCC(=O)O)NC(=O)[C@@H](CCC(=O)O)NC(=O)CCC(C(=O)O)N1CCN(CC(=O)O)CCN(CC(=O)O)CCN(CC(=O)O)CC1)C(=O)N[C@@H](CC(=O)O)C(=O)N[C@@H](Cc1ccccc1)C(N)=O (some centres unmarked) [DOTAGA-MG-SiFA-7, DOTAGA-glu-[dap(SiFA)^4]F11N] ({DOTAGA}-[dE][dE][dE][dE][dDap](Benzoyl(4-SiFtBu2))[dE][dE]AYGW[Nle]DF-NH2) |  |  | −2.03 ± 0.10 | 156 ± 4 nM
CCCC[C@H](NC(=O)[C@H](Cc1c[nH]c2ccccc12)NC(=O)CNC(=O)[C@H](Cc1ccc(O)cc1)NC(=O)[C@H](C)NC(=O)[C@@H](CCC(=O)O)NC(=O)[C@@H](CCC(=O)O)NC(=O)[C@@H](CCC(=O)O)NC(=O)[C@@H](CNC(=O)c1ccc([Si](F)(C(C)(C)C)C(C)(C)C)cc1)NC(=O)[C@@H](CCC(=O)O)NC(=O)[C@@H](CCC(=O)O)NC(=O)[C@@H](CCC(=O)O)NC(=O)CCC(C(=O)O)N1CCN(CC(=O)O)CCN(CC(=O)O)CCN(CC(=O)O)CC1)C(=O)N[C@@H](CC(=O)O)C(=O)N[C@@H](Cc1ccccc1)C(N)=O (some centres unmarked) [DOTAGA-MG-SiFA-8, DOTAGA-glu-[dap(SiFA)^3]F11N] ({DOTAGA}-[dE][dE][dE][dDap](Benzoyl(4-SiFtBu2))[dE][dE][dE]AYGW[Nle]DF-NH2) |  |  | −2.19 ± 0.08 | 185 ± 14 nM
CCCC[C@H](NC(=O)[C@H](Cc1c[nH]c2ccccc12)NC(=O)CNC(=O)[C@H](Cc1ccc(O)cc1)NC(=O)[C@H](C)NC(=O)[C@@H](CCC(=O)O)NC(=O)[C@@H](CCC(=O)O)NC(=O)[C@@H](CCC(=O)O)NC(=O)[C@@H](CCC(=O)O)NC(=O)[C@@H](CNC(=O)c1ccc([Si](F)(C(C)(C)C)C(C)(C)C)cc1)NC(=O)[C@@H](CCC(=O)O)NC(=O)[C@@H](CCC(=O)O)NC(=O)CCC(C(=O)O)N1CCN(CC(=O)O)CCN(CC(=O)O)CCN(CC(=O)O)CC1)C(=O)N[C@@H](CC(=O)O)C(=O)N[C@@H](Cc1ccccc1)C(N)=O (some centres unmarked) [DOTAGA-MG-SiFA-9, DOTAGA-glu-[dap(SiFA)^2]F11N] ({DOTAGA}-[dE][dE][dDap](Benzoyl(4-SiFtBu2))[dE][dE][dE][dE]AYGW[Nle]DF-NH2) |  |  | −2.67 ± 0.05 | 90 ± 2.3 nM
CCCC[C@H](NC(=O)[C@H](Cc1c[nH]c2ccccc12)NC(=O)CNC(=O)[C@H](Cc1ccc(O)cc1)NC(=O)[C@H](C)NC(=O)[C@@H](CCC(=O)O)NC(=O)[C@@H](CCC(=O)O)NC(=O)[C@@H](CCC(=O)O)NC(=O)[C@@H](CCC(=O)O)NC(=O)[C@@H](CCC(=O)O)NC(=O)[C@@H](CNC(=O)c1ccc([Si](F)(C(C)(C)C)C(C)(C)C)cc1)NC(=O)[C@@H](CCC(=O)O)NC(=O)CCC(C(=O)O)N1CCN(CC(=O)O)CCN(CC(=O)O)CCN(CC(=O)O)CC1)C(=O)N[C@@H](CC(=O)O)C(=O)N[C@@H](Cc1ccccc1)C(N)=O (some centres unmarked) [DOTAGA-MG-SiFA-10, DOTAGA-glu-[dap(SiFA)^1]F11N] ({DOTAGA}-[dE][dDap](Benzoyl(4-SiFtBu2))[dE][dE][dE][dE][dE]AYGW[Nle]DF-NH2) |  |  | −2.22 ± 0.08 | 56.8 ± 6.4 nM
